Laboratory results published in ChEMBL document CHEMBL1123862, “Binding orientation of amphetamine and norfenfluramine analogues in the benzonorbornene and benzobicyclo[3.2.1]octane ring systems at the active site of phenylethanolamine N-methyltransferase (PNMT)” (J Med Chem, 1987).

T1: Phenylethanolamine N-methyltransferase (Bos taurus, UniProt P10938)
T1 sequence (P10938 whole entry): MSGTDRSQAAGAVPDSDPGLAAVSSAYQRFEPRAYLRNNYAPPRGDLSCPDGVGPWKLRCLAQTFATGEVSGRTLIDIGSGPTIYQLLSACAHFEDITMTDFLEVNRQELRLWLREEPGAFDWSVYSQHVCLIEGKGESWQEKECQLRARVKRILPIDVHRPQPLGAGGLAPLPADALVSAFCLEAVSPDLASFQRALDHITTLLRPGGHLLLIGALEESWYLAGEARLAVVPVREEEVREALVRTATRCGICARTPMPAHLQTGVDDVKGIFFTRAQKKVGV


Legend:
[1] = target: T1, Phenylethanolamine N-methyltransferase; assay: (§1) Inhibition of Phenylethylamine N-Methyltransferase (PNMT) using radiochemical assay
[2] = compound: NC1C2CC[C@H]1c1ccccc12; assay: as §1
[3] = compound: N[C@@H]1C2CCC1c1ccc(C(F)(F)F)cc1C2; assay: as §1
[4] = compound: N[C@@H]1C2CCC1c1cccc(C(F)(F)F)c1C2; assay: as §1
[5] = compound: N[C@@H]1CC2CC1c1ccc(C(F)(F)F)cc12; assay: as §1
[6] = compound: N[C@@H]1CC2CC1c1cccc(C(F)(F)F)c12; assay: as §1
[7] = compound: N[C@@H]1CC2C[C@@H]1c1ccccc12; assay: as §1
[8] = compound: N[C@H]1C2CCC1c1cc(C(F)(F)F)ccc12; assay: as §1

Molecule	Ki [1]	other results
N[C@H]1C2CCC1c1cc(C(F)(F)F)ccc1C2 (some centres not stated)	801 µM	–
N[C@H]1C2CCC1c1c2cccc1C(F)(F)F (some centres not stated)	12.1 µM	–
NC1CCc2ccccc2C1 (configuration not stated)	15 µM	–
N[C@@H]1CC2CC1c1c2cccc1C(F)(F)F (some centres not stated)	350 µM	–
N[C@@H]1C2CCC1c1c(cccc1C(F)(F)F)C2 (some centres not stated)	51.1 µM	–
N[C@H]1C2CCC1c1c(cccc1C(F)(F)F)C2 (some centres not stated)	191 µM	–
N[C@H]1C2CCC1c1cccc(C(F)(F)F)c1C2 (some centres not stated)	1430 µM	–
N[C@H]1C2CCC1c1ccccc1C2 (some centres not stated)	8900 µM	–
NC1C2CC[C@H]1c1ccccc12 (some centres not stated)	258 µM	–
N[C@@H]1CC2CCC1c1ccccc12 (some centres not stated)	1300 µM	–
N[C@@H]1C2CCC1c1ccccc1C2 (some centres not stated)	106 µM	–
N[C@@H]1CC2CC1c1cc(C(F)(F)F)ccc12 (some centres not stated)	204 µM	–
N[C@H]1C2CCC1c1ccc(C(F)(F)F)cc1C2 (some centres not stated)	1800 µM	–
N[C@@H]1C2CCC1c1cc(C(F)(F)F)ccc1C2 (some centres not stated)	31.8 µM	–
Phenylethanolamine N-methyltransferase (Bos taurus), P10938 (protein) MSGTDRSQAAGAVPDSDPGLAAVSSAYQRFEPRAYLRNNYAPPRGDLSCPDGVGPWKLRCLAQTFATGEVSGRTLIDIGSGPTIYQLLSACAHFEDITMTDFLEVNRQELRLWLREEPGAFDWSVYSQHVCLIEGKGESWQEKECQLRARVKRILPIDVHRPQPLGAGGLAPLPADALVSAFCLEAVSPDLASFQRALDHITTLLRPGGHLLLIGALEESWYLAGEARLAVVPVREEEVREALVRTATRCGICARTPMPAHLQTGVDDVKGIFFTRAQKKVGV	–	Km [2]: 151 µM; Vmax [2]: 0.17 nmol/min/mg; Km [3]: 45.8 µM; Vmax [3]: 0.46 nmol/min/mg; Km [4]: 34.4 µM; Vmax [4]: 0.52 nmol/min/mg; Km [5]: 52 µM; Vmax [5]: 1.38 nmol/min/mg; Km [6]: 33 µM; Vmax [6]: 0.49 nmol/min/mg; Vmax [7]: 0.04 nmol/min/mg; Km [8]: 14.6 µM; Vmax [8]: 0.57 nmol/min/mg
